The record followed here is PMC7026418, “The kinase polypharmacology landscape of clinical PARP inhibitors” (Scientific Reports, 2020).

Molecules are shown by their SMILES. Where two headings read alike, the source gives them in different places.

What all share (experiment): biochemical
Holding throughout (parameters): DiscoveRx KINOMEscan active site-directed competition binding; percent of control kinase bound to immobilised ligand

One assay has as its target CSNK2A2 (Homo sapiens, UniProt P19784).
Another assay deals with T1, EPHB6 (Homo sapiens, UniProt O15197).
T1 sequence (O15197 1-1021): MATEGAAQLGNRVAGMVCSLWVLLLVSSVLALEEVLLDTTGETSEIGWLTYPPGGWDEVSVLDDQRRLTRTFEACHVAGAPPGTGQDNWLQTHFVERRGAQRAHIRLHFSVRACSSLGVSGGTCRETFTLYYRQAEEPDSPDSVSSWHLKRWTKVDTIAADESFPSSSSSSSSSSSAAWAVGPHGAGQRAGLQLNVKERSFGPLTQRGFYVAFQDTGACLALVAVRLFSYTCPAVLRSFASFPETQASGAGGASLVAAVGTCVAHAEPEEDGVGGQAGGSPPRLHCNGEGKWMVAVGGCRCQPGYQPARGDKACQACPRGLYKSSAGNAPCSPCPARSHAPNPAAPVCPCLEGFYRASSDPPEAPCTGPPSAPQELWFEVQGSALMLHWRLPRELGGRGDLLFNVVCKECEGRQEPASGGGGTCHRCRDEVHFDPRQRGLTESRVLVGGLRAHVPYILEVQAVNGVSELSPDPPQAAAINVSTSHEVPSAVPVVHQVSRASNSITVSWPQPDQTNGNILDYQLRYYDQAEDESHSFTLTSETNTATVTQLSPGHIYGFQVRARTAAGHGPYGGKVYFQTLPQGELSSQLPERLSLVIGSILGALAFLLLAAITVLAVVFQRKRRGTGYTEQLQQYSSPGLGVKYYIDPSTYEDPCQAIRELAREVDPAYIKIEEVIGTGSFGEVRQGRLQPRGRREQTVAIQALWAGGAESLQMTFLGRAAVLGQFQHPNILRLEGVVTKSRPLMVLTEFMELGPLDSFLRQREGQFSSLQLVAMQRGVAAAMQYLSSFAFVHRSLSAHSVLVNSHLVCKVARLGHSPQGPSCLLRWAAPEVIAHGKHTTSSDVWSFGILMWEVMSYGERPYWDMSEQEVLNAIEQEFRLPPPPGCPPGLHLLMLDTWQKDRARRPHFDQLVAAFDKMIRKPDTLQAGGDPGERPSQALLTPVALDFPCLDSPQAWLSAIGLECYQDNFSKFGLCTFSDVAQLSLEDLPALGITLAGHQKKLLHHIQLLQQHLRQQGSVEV

For a further assay, the target named is T2, ITK (Homo sapiens, UniProt Q08881).
T2 sequence (Q08881 1-620): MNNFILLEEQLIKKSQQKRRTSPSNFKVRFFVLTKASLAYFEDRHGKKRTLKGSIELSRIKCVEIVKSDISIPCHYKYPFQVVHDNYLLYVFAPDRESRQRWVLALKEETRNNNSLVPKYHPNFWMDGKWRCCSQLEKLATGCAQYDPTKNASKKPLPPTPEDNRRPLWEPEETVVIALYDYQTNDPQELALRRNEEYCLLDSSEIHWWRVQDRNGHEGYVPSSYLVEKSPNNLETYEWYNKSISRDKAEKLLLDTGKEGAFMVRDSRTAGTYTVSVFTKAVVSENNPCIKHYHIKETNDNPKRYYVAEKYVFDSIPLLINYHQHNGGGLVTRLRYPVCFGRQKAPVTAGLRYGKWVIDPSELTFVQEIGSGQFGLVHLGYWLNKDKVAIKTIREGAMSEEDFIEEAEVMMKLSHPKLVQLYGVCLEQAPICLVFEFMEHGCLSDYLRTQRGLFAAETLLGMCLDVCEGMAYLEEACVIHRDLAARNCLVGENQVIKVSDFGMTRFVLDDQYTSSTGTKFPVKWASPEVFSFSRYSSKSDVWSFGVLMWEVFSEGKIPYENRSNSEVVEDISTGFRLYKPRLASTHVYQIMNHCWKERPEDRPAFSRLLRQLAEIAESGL

The next assay has as its target HIPK1 (Homo sapiens, UniProt Q86Z02).
The next assay deals with T3, CDKL5 (Homo sapiens, UniProt O76039).
T3 sequence (O76039 1-960): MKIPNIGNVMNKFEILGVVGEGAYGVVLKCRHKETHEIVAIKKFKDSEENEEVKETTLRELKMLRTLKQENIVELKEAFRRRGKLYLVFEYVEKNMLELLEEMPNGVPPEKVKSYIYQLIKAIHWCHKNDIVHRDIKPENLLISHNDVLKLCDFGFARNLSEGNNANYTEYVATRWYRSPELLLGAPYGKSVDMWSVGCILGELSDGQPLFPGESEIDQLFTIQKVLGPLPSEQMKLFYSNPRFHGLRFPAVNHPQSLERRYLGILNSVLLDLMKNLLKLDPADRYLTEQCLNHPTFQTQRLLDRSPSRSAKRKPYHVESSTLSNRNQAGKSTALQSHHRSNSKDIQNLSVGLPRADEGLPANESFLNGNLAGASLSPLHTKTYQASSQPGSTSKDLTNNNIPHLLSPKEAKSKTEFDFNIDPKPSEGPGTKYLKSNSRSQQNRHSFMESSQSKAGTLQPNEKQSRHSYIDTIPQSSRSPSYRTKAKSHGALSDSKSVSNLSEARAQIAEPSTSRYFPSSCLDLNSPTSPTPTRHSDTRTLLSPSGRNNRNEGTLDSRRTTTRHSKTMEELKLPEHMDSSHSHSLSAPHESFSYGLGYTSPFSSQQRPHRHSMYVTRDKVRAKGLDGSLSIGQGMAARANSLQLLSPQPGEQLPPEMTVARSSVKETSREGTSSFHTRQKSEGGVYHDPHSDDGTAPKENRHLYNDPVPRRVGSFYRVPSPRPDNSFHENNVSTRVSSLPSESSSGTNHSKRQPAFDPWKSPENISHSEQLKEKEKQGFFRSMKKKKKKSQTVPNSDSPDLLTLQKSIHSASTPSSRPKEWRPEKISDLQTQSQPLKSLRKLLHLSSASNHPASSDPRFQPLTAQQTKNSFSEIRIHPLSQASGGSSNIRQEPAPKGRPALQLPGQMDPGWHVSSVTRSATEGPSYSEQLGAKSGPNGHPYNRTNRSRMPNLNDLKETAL

[1] abbreviates: read-out: Niraparib (MK-4827) / %Ctrl @ 10000nM.
The mark [2] stands for this setting: read-out: Olaparib / %Ctrl @ 10000nM.
The mark [3] stands for this setting: read-out: Rucaparib / %Ctrl @ 10000nM, binding competition, % of control.
Setting [4] is: read-out: Talazoparib (BMN 673) / %Ctrl @ 10000nM.

Chain of CSNK2A2 (P19784 whole entry): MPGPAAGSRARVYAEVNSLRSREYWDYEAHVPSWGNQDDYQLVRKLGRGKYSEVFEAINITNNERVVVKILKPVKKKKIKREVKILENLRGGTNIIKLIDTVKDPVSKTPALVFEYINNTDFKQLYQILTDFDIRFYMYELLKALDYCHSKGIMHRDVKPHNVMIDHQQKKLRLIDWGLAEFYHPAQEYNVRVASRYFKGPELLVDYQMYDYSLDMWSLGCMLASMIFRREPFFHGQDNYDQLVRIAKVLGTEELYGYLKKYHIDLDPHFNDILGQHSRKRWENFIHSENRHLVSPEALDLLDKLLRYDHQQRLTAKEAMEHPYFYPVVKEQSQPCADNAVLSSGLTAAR
Chain of HIPK1 (Q86Z02 whole entry): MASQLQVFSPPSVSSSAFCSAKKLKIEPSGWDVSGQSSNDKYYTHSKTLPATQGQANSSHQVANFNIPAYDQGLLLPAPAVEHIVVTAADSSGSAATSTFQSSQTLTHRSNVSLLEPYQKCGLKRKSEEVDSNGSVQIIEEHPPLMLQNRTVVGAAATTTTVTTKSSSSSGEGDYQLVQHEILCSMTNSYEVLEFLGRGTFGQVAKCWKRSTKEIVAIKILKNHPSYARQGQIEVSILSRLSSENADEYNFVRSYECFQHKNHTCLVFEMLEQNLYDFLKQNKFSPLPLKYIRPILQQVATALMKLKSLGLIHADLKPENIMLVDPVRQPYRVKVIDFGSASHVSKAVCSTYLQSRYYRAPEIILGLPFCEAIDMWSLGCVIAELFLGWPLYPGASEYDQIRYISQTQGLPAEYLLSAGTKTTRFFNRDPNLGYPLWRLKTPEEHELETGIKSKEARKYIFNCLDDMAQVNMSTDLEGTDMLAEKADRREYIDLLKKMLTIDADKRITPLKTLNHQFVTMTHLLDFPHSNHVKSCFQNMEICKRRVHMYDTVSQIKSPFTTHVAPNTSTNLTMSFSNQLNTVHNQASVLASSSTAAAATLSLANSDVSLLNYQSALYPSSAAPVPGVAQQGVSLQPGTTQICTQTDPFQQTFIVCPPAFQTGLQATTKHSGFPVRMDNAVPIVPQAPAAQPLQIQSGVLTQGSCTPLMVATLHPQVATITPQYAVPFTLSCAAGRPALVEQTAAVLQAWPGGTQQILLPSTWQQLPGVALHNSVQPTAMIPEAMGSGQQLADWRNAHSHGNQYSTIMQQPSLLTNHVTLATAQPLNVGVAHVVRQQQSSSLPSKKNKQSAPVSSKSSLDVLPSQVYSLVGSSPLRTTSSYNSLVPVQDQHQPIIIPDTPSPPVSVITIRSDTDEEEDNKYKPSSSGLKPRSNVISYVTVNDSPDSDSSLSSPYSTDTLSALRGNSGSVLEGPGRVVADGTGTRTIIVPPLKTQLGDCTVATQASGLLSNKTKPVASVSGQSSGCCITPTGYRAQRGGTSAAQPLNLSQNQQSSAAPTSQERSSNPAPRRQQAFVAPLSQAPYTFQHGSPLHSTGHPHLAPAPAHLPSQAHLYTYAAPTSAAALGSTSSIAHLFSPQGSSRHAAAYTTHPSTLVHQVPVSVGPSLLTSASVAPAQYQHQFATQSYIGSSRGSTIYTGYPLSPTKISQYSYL

On to `NC(=O)c1cccc2cn(-c3ccc([C@@H]4CCCNC4)cc3)nc12` [Niraparib], for which the percent of control binding at 10 µM at CSNK2A2 (setting [1]) amounted to 1.2%; at EPHB6 (setting [1]), 34%; at ITK (setting [1]), 91%; at HIPK1 (setting [1]), 0.95%; at CDKL5 (setting [1]), 86%.

For the compound `O=C(c1cc(Cc2n[nH]c(=O)c3ccccc23)ccc1F)N1CCN(C(=O)C2CC2)CC1` [Olaparib], the percent of control binding at 10 µM at CSNK2A2 (setting [2]) came to 83%; on EPHB6 (setting [2]) it was 81%; on ITK (setting [2]), 100%; at HIPK1 (setting [2]) it was 87%; on CDKL5 (setting [2]), 98%.

Turning to `CNCc1ccc(-c2[nH]c3cc(F)cc4c3c2CCNC4=O)cc1` [Rucaparib], the percent of control binding at 10 µM on CSNK2A2 (setting [3]) was 2%; on EPHB6 (setting [3]), 50%; on ITK (setting [3]), 100%; on HIPK1 (setting [3]), 5.4%; on CDKL5 (setting [3]) it was 30%.

For the compound `Cn1ncnc1[C@H]1c2n[nH]c(=O)c3cc(F)cc(c23)N[C@@H]1c1ccc(F)cc1` [Talazoparib], the percent of control binding at 10 µM worked out at 77% on CSNK2A2 (setting [4]); 84% at EPHB6 (setting [4]); 84% on ITK (setting [4]); 100% on HIPK1 (setting [4]); 100% at CDKL5 (setting [4]).
